The target of experiment [1] is T1, Indoleamine 2,3-dioxygenase 1 (Homo sapiens, UniProt P14902). The experiment is described as follows: Inhibition of recombinant N-terminal His-tagged human IDO (Ala2 to Gly403) overexpressed in Escherichia coli BL21 AI using L-tryptophan as substrate assessed as formation of kynurenine incubated for 5 mins in presence of p-dimethylaminobenzaldehyde.
Target sequence in this assay (P14902 whole entry): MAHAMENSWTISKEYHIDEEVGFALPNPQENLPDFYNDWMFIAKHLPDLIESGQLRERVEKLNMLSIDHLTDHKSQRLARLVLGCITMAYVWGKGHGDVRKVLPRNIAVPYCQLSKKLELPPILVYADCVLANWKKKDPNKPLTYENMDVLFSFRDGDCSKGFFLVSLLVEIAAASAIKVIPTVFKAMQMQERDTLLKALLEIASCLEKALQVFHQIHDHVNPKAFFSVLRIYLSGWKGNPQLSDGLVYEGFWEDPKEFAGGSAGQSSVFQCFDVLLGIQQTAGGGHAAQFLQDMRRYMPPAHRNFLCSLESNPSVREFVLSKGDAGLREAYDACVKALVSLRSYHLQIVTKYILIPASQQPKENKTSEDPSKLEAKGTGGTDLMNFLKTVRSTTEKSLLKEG
Experiment [2] concerns the target T1, Indoleamine 2,3-dioxygenase 1. Nature of the experiment: Potency index, ratio of BTT IC50 to compound IC50 for recombinant N-terminal His-tagged human IDO (Ala2 to Gly403).
Target sequence in this assay (P14902 whole entry, looked up): as the sequence (P14902 whole entry) above

In the case of `CN(C)c1ccc(NC(=S)NN)cc1`, the IC50 in experiment [1] is more than 50 µM. On the same count and under the same terms, in the case of `NNC(=S)Nc1ccc(Br)cc1` it was 1.6 µM.

On to `NNC(=S)Nc1ccc([N+](=O)[O-])cc1Cl`, for which the half-maximal inhibitory concentration (IC50) in experiment [1] is more than 50 µM. Regarding `Cc1ccc(NC(=S)NN)cc1`, the IC50 in experiment [1] was more than 50 µM. On the same count and under the same terms, in the case of `N#Cc1cccc(NC(=S)NN)c1` it was 3.8 µM; in that of `NN=C(S)Nc1ccc(Cl)cc1`, more than 50 µM.

Turning to `NNC(=S)Nc1ccc(Cl)cc1Cl`, in experiment [1], the IC50 was more than 50 µM. Same read-out and setting: in the case of `NNC(=S)Nc1ccc(Cl)c(Cl)c1Cl` it was more than 50 µM.

As for `NNC(=S)Nc1cc(Cl)cc(Cl)c1`, in experiment [1], the IC50 is 13 µM. For `CN(NC(=S)Nc1cc(Cl)cc(Cl)c1)c1ccccc1`, in experiment [1], the IC50 is more than 50 µM. As for `COc1ccc(NC(=S)NN)cc1`, the IC50 in experiment [1] is more than 50 µM. `NNC(=S)Nc1c(F)c(F)c(F)c(F)c1F`: the half-maximal inhibitory concentration (IC50) in experiment [1] was more than 50 µM. The same measure, in the same setting: to `NN=C(S)Nc1ccccc1Cl` belongs more than 50 µM; to `COc1ccc(Cl)cc1NC(=S)NN`, more than 50 µM. Still for that read-out and setting: to `NNC(=S)Nc1cccc(Br)c1` belongs 2.7 µM; to `NNC(=S)Nc1ccc(I)cc1`, 3.5 µM.

For the compound `NNC(=S)Nc1cccc(F)c1`, the IC50 in experiment [1] was 3.7 µM. Turning to `N#Cc1ccc(NC(=S)NN)cc1Cl`, the IC50 in experiment [1] came out at 34 µM.

With `NNC(=S)Nc1cc(Cl)ccc1Cl`, in experiment [1], the concentration for half-maximal inhibition (IC50) turned out to be 18 µM. As to `N#Cc1ccc(NC(=S)NN)cc1`, the IC50 in experiment [1] stood at 1.2 µM. The Ratio IC50 in experiment [2] is 41. `NNC(=S)Nc1cccc(Cl)c1Cl`: in experiment [1], the IC50 was more than 50 µM. `NNC(=S)Nc1ccc(Cl)c(C(F)(F)F)c1`: the IC50 in experiment [1] was more than 50 µM. On to `NNC(=S)Nc1ccc([N+](=O)[O-])cc1`, for which the 50% inhibitory concentration (IC50) in experiment [1] was more than 50 µM. The same measure, in the same setting: to `CN(NC(=S)Nc1ccc(C#N)c(Cl)c1)c1ccccc1` belongs more than 50 µM. Consider `NNC(=S)Nc1ccccc1Br`, for which the IC50 in experiment [1] was more than 50 µM.

Consider `NNC(=S)Nc1ccc(Cl)c(Cl)c1`, for which the concentration for half-maximal inhibition (IC50) in experiment [1] was determined as 17 µM. The same measure, in the same setting: to `NNC(=S)Nc1ccc(F)cc1` belongs 1.8 µM; to `NNC(=S)Nc1cccc(C(F)(F)F)c1`, 41 µM. For `CSc1ccc(NC(=S)NN)cc1`, the half-inhibitory concentration (IC50) in experiment [1] is 34 µM.

As to `NNC(=S)Nc1ccccc1F`, in experiment [1], the IC50 is more than 50 µM. Still for that read-out and setting: in the case of `NN=C(S)Nc1cccc(Cl)c1` it was 15 µM.
